Measurements published in patent publication US7125847B1, “Mechanically activated channel blocker” (priority 2000, dated 2006).
“Also recorded” adds a separate entry of the source. Where no end group is shown, it is not given here.

How the values were obtained:
Type in all cases: cell-based
[1] = tested on: MSC currents in normal rat kidney cells; test: Outside-out patch clamp of mechanosensitive channel currents in normal rat kidney cells; settings: 5 μM
Method: NRK cell culture: Normal rat kidney cells (CCA identifier is 49F) at passages 20–25, were maintained in DMEM, 5% fetal bovine serum and 1%
Penicillin/Streptomycin. Cells were plated onto poly-L-lysine coated cover-slips, and used in experiments between 2 and 6 days after passage.
Electrophysiology: An Axopatch 200B (Axon Instruments, California) was used for patch clamping, while experimental protocols and data acquisition were controlled by Axon Instruments pClamp8 software via a Digidata 1322A acquisition system. Currents were sampled at 10 KHz and low-pass filtered at 2 KHz through the 4 pole Bessel filter on the Axopatch 200B. All potentials are defined with respect to the extracellular surface. Electrodes were pulled on a Model PC-84 pipette puller (Brown-Flaming Instruments, California), painted with Sylgard 184 (Dow Corning Corp. Midland Mich.) and fire polished. Electrodes were filled with KCl saline (KCl 140 mM, EGTA 5 mM, MgSO4 2 mM, Hepes 10 mM, pH 7.3) and had resistances ranging from 10–20 MΩ. Bath saline consisted of NaCl—140 mM, KCl—5 mM, CaCl2—2 mM, MgSO4—0.5 mM, glucose—6 mM and Hepes—10 mM, pH 7.3. Pressure and suction were applied to the pipette by a HSPC-1 pressure clamp (ALA Scientific Instruments, New York) controlled by the pClamp software. Perfusion of toxin samples was performed by a pressurized local perfusion system BPS-8 (ALA scientific instruments, NY) with 8 separate channels. Off-line data analysis was performed with Clampfit and Origin 6.1 software.

[2] = tested on: stretch-activated channels (SACs); test: Outside-out patch clamp of stretch-activated channels in adult rat astrocytes
Method: This embodiment describes the effect of the peptide GsMTx-4 variant (SEQ ID NO:1) on SACs. To illustrate this, adult rat astrocytes which are known to have SACs, were used. Adult rat astrocytes were cultured according to standard methods. Briefly, activated adult astrocytes isolated from gelatin-sponge implants from adult Sprague-Dawley rat brains obtained according to the method of Langan et al. (1995, Glia, 14:174–184) were used at passage numbers 2–4. Astrocytes were maintained in DMEM, 10% fetal bovine serum and 1% Penicillin/Streptomycin and were used in experiments between 2 and 5 days after passage. Cells between passage 4 and 35 expressed SACs with the same properties Both stellate process bearing cells and flat polygonal (fibroblast-like) cells were used.
The cultured astrocytes were used for single channel and whole cell recorndings. For single channel patch clamp, patch voltage was controlled by an Axopatch 200B (Axon Instruments, Calif.) and currents were recorded directly onto computer disk via a Labmaster DMA Ver. B (Scientific Instruments, Calif.) board controlled by pClamp6-Clampex acquisition software (Axon Instruments, California). Currents were sampled at 10 KHz and low-pass filtered at 2 KHz through the 4 pole Bessel filter on the Axopatch 200B. Experimental voltage protocols were controlled by pClamp6-Clampex. All potentials are defined with respect to the extracellular surface.
Electrodes were pulled on a Model PC-84 pipette puller (Brown-Flaming Instruments, Calif.), painted with Sylgard 184 (Dow Corning Corp. Midland Mich.) and fire polished. Electrodes were filled with KCl saline (KCl 140 mM, EGTA 5 mM, MgSO4 2 mM, Hepes 10 mM, pH 7.3) and had resistances ranging from 3–8 MWBath saline consisted of NaCl 140 mM, KCl 5 mM, MgSO4 1 mM, CaCl2 1 mM, glucose 6 mM and Hepes 10 mM, pH 7.3.
Pressure and suction were applied to the pipette by a pressure clamp. Pressure values represent pressure in the pipette, i.e., the intracellular side of the membrane in outside-out patches. Suction applied to a cell-attached patch has the same sign as pressure applied to an outside-out patch. The rise time of pressure changes at the tip were determined by monitoring the rate of current change when pressure steps were applied to an electrode containing 150 mM KCl solution and placed in a water bath. The t10-90 was ˜5 ms as determined by exponential fits to the current decay. Perfusion of toxin samples was performed by a pressurized bath perfusion system BPS-8 (ALA scientific instruments, NY) with 8 separate channels.
Off-line data analysis was performed with pClamp6 analysis software and Origin 5.0. Maximal unitary channel currents were determined via Guassian fits to the peaks of all points amplitude histograms generated from records containing 1–3 channels. […] Some of these records were analyzed by determining all of the step-like changes in current during the pressure application and selecting the average maximal current level as the unitary current. The data analyzed by this method was in good agreement with the unitary current levels determined by analysis of all points amplitude histograms from single channel patches.
The outside out patches from adult astrocytes as described above were used for testing the HPLC fractions obtained in Example 1. The HPLC fractions were lyophilized, redissolved at a 1:1000 dilution and perfused onto outside out patches. […] The fraction containing the single peak in FIG. 1D was then tested for activity against SACs. […] The patch was held at −50 mV, and the pressure pulse is shown above the records.
The entire experiment is comprised of 60 pressure steps: steps 1–20 occur before GsMTx-4 application; steps 21–38 while GsMTx-4 is being perfused; steps 39–60 occur during washout. Each 500 ms pressure step was separated by 1.5 seconds at 0 pressure.
The association rate of the toxin was determined by applying GsMTx-4 to an outside-out patch while the channels were activated by stretch (FIG. 5). […]

[3] = tested on: whole-cell swelling-activated currents in adult rat astrocytes; test: Whole-cell (Nystatin perforated patch) currents in adult rat astrocytes, isotonic and hypotonic swelling
Method: It is considered that part of the swelling activated currents are attributable to SACs. To illustrate this embodiment, adult rat astrocytes were cultured as described above. Whole cell current was measured by the Nystatin perforated patch. Bath saline was the same as in Example 2. Pipette saline consisted of: KCl 80 mM, K2SO4 30 mM, NaCl 10 mM, MgSO4 3 mM, CaCl20.13 mM, EGTA 0.23 mM and Hepes 10 mM, pH 7.3. Nystatin was dissolved in pipette saline to a final concentration of […]. After patch formation, access resistance was allowed to drop to ˜15 MW (uncompensated), after which the series resistance compensation was set at ˜65%, and prediction was set to ˜75%. Whole cell capacitance measurements ranged from ˜25–50 pF. Whole cell currents were monitored by either a voltage step protocol shown in FIG. 7, or by 600 ms voltage ramps. During hypotonic swelling the cell was perfused initially with isotonic saline (bath saline with 160 mM mannitol replacing 80 mM NaCl) before switching to hypotonic saline (isotonic saline minus 140 mM mannitol). The BPS-8 perfusion system was used to rapidly (<200 ms) change the bathing solution. Peak currents were measured at 3–5 ms into voltage steps.

Compound: cloned: GsMTx4 liberated by thrombin from a thioredoxin fusion protein, with three extra amino acids at the N-terminus (SGMGCLEFWWKCNPNDDKCCRPKLKCSKLFKLCNFSF; ends and bridges not checked; cysteine pairing not given here)
- block of mechanosensitive channels [1]: blocked; also recorded: active in blocking SACs
- block of mechanically sensitive current ([1]; outside-out patches held at −50 mV): greater than 75%

Compound: GCLEFWWKCNPNDDKCCRPKLKCSKLFKLCNFSSG (not fully specified (C-terminus); ends and bridges not checked; listed as Grammastola spatulata) [SEQ ID NO.1, 35 amino acids with C-term glycine amide]
- SAC blocking activity [2]: has SAC blocking activity

Compound: synthetic: chemically synthesized GsMTx4 with a C-terminal phenylalanine, folded with GSH/GSSG (GCLEFWWKCNPNDDKCCRPKLKCSKLFKLCNFSF-NH2; disulfide (positions not given here); not fully specified (bridges); also: three intramolecular disulfide bonds, pairing not given here)
- block of mechanosensitive channels [1]: active in blocking SACs
- block of mechanosensitive channels ([1]; listed as synthetic peptide): blocked

Compound: [Cl-].[Cs+] [CsCl, reference compound]
- effect on whole-cell current in isotonic saline ([3]; CsCl, hyperpolarized potentials): significant decrease in current

Compound: O=S(=O)(O)c1cc(N=C=S)ccc1C=Cc1ccc(N=C=S)cc1S(=O)(=O)O [DIDS, reference compound]
- shift in reversal potential of swelling-activated current ([3]; 50 μM DIDS, average n=6): −33 mV
- effect on swelling-activated current ([3]; 50 μM DIDS, especially at depolarized potentials): significant reduction in current
